Laboratory results as given in the NIST ThermoML archive (doi:10.1016/j.fluid.2019.01.021).
± gives the expanded uncertainty stated by the source.

Conditions: Liquid, Capillary tube (Ostwald / Ubbelohde) method

CCC(C)CC(C)(C)C (stereo unspecified) [2,2,4-trimethylhexane]
293.15 K
Conditions | viscosity [mPa·s]
100 kPa | 0.64 ± 0.064
25000 kPa | 0.844 ± 0.084
50000 kPa | 1.101 ± 0.11
100000 kPa | 1.71 ± 0.17
150000 kPa | 2.54 ± 0.25
250000 kPa | 5.31 ± 0.56
350000 kPa | 10.67 ± 1.3
400000 kPa | 15 ± 2.1
500000 kPa | 30.9 ± 4.8
600000 kPa | 62.9 ± 12
700000 kPa | 126.9 ± 29
800000 kPa | 264 ± 79
900000 kPa | 558 ± 220
1000000 kPa | 1187

CC(C)CC(C)(C)C [2,2,4-trimethylpentane]
298.15 K
Conditions | viscosity [mPa·s]
100 kPa | 0.48 ± 0.047
26000 kPa | 0.641 ± 0.061
50000 kPa | 0.809 ± 0.076
100000 kPa | 1.207 ± 0.11
200000 kPa | 2.35 ± 0.23
312000 kPa | 4.41 ± 0.47
407000 kPa | 7.7 ± 0.89
499000 kPa | 12.63 ± 1.6
600000 kPa | 21.3 ± 3
700000 kPa | 36.4 ± 5.8
800000 kPa | 61.5 ± 11
900000 kPa | 104.8 ± 22
